In patent US7759313B2, “Induction method for cell differentiation” (Obschetstvo S Ogranichennoi Otvetstvennostiyu …, priority 2002, dated 2010):
Where “and” joins values, the source holds several entries; their conditions need not be identical. Equal entries are not always repeated. Entries after “also recorded” stand apart in the source; their conditions may differ. Where two headings read alike, the source gives them in different places.

Assays:
human melanoma = assay: Number of cells with melanin in inoculated human melanoma (Goryaev's chamber); assay type: in vivo; details: 4.5 mg/kg p.o. daily for 3 weeks
Protocol: Mice with subcutaneously inoculated human melanoma as described in Example 1 were daily p.o. dosed with Dicarbamine at a higher single dose (4.5 mg/kg for 3 weeks from the moment of the tumor transplantation).
Animals were sacrificed three weeks after the tumor transplantation. By the time of sacrifice, the volume of the tumors was on average 150 mm^3. Following sacrifice, the tumors were excised from the mice and disintegrated with Versen solution, and the cell fraction containing cells with pigment was isolated. The number of cells with pigment was calculated in the Goryaev's chamber using light microscopy.

human melanoma Mel-6 = assay: Inoculated human melanoma Mel-6 growth dynamics in nude mice; assay type: in vivo
Protocol: The study was conducted on 10-12 week old thymus free “nude” female Balb/C mice weighting 20-22 grams (breeding of the RCRC named after N. N. Blokhin of the RAMS). The human melanoma strain Mel-6 earlier obtained from primary clinical material was taken from the bank of tumor strains of the RCRC of the RAMS for transplantation to thymus free mice.
Dicarbamine at the single doses 1.5 mg/kg and 4.5 mg/kg was p.o. administered daily to two mice groups for 3 weeks from the moment of the tumor development (from day 15 to day 36 from the tumor transplantation).
Measurement of the tumor was done at days 18, 25, 33, 39, 46 and 53 from the transplantation. The effect of Dicarbamine was assessed on the basis of the tumor growth dynamics for 8 weeks in multiple measurements of tumor volumes “V” according to the formula: […]
wherein L is length in mm, s is width in mm; and h is height in mm.
The ratio between volumes of tumors Vt/Vt−1 expressed as a percentage was then calculated and statistically processed according to the Student's method to calculate statistically significant difference.

human M-5 melanoma cells = assay: Initial rate of cell proliferation (IRCP), M-5 cells; assay type: cell-based
Protocol: The study was conducted on two continuous cell cultures growing in the form of a monolayer in a tissue culture (on murine B-16 melanoma cells and human M-5 melanoma cells). […] Dicarbamine (D) was transferred into stock solution (1.000 μM), sterilized through filters with 0.22 μm pore diameter and then diluted to concentrations 0.01 and 1.0 μM.
The effect of preparations on cells was assessed on the basis of initial rate of cell proliferation (IRCP). This index (IRCP), which is usually called colony rate growth, was determined by numbering the number of cells in micro colonies during the first days following affection in “test” (with preparations) and “control” (without preparations) dishes, by analyzing 50 colonies in each of them. Each “point” included […] three Petri dishes with growing cell colonies in adding specific concentrations of preparations under study. Growth rate of colonies (in %) was calculated according to the formula: […]
Cell numbers in micro colonies were calculated for every “point”. Toxicity of preparations in the selected range of concentrations was judged by cell survival, which was determined by the ratio between numbers of the colonies grown in “test” and “control” dishes.

[1] = Complete blood analysis of individual ovarian cancer patients; assay type: in vivo, human; details: for Platelets: in 10^9/L (unit assumed)
Protocol: The effect of Dicarbamine was studied in 13 patients with stage III-IV ovarian cancer who underwent 77 courses of the chemotherapy according to the scheme: 400 mg/m^2 Carboplatin i.v. drop-wise, once +600 mg/m^2 Cyclophosphan i.v. drop-wise, once; the courses were repeated in 28 days. Dicarbamine was prescribed daily at dose 100 mg orally after meals beginning 5 days prior to the first course and then for three weeks. Dosing duration was 26 days, course dose being 2600 mg. Dicarbamine was given again 5 days prior to the second chemotherapy course, and dosing was continued for 21 days. Total duration of Dicarbamine intake during two the chemotherapy courses was 52 days.
Hematopoiesis parameters were assessed dynamically many times before and after conducted the chemotherapy (control) as well as dynamically before and after Dicarbamine dosing in the test group. Below hematopoiesis parameters in individual patients who received the chemotherapy according to the indicated scheme with Dicarbamine or without it are presented.

[2] = with Dicarbamine, Day 0, before starting Dicarbamine
[3] = with Dicarbamine, Day 5, before starting course 1 of CT
[4] = with Dicarbamine, Day 21, after termination of Dicarbamine intake
[5] = with Dicarbamine, Day 33, before course 2 of CT
[6] = with Dicarbamine, course 2, Day 28 after course 1 of CT
[7] = with Dicarbamine, course 2, Day 33
[8] = with Dicarbamine, course 2, Day 54
[9] = with Dicarbamine, course 2, Day 61

Structure (SMILES): O=C(O)CCCC(=O)NCCc1c[nH]cn1 [Dicarbamine]
- increase of number of cells synthesizing melanin vs control (human melanoma): 3 fold
- Number of cells with melanin (human melanoma; individual tumors 1-7): 95 (2×) and 110 and 130 and 106 and 111 (2×)
- V (tumor volume) M + m (human melanoma Mel-6; 1.5 mg/kg p.o. daily days 15-36, 18 day after inoculation): 21.8 + 12.8
- percent change in tumor volume Vt/Vt−1 (human melanoma Mel-6; 1.5 mg/kg, 18 day): 100%
- V (tumor volume) M + m (human melanoma Mel-6; 1.5 mg/kg, 25 day): 77.5 + 46.4
- percent change in tumor volume Vt/Vt−1 (human melanoma Mel-6; 1.5 mg/kg, 25 day): 302.0 ± 186.0%
- V (tumor volume) M + m (human melanoma Mel-6; 1.5 mg/kg, 33 day): 342.0 + 142.0
- percent change in tumor volume Vt/Vt−1 (human melanoma Mel-6; 1.5 mg/kg, 33 day): 428.0 ± 313.1%
- V (tumor volume) M + m (human melanoma Mel-6; 1.5 mg/kg, 39 day): 435.0 + 187.0
- percent change in tumor volume Vt/Vt−1 (human melanoma Mel-6; 1.5 mg/kg, 39 day): 23.2 ± 22.1%
- V (tumor volume) M + m (human melanoma Mel-6; 1.5 mg/kg, 46 day): 662.0 + 417.0
- percent change in tumor volume Vt/Vt−1 (human melanoma Mel-6; 1.5 mg/kg, 46 day): 23.9 + 31.0%
- V (tumor volume) M + m (human melanoma Mel-6; 1.5 mg/kg, 53 day): 783.0 + 423.0
- percent change in tumor volume Vt/Vt−1 (human melanoma Mel-6; 1.5 mg/kg, 53 day): 18.6 + 54.0%
- V (tumor volume) M + m (human melanoma Mel-6; 4.5 mg/kg p.o. daily days 15-36, 18 day): 91.9 + 54.4
- percent change in tumor volume Vt/Vt−1 (human melanoma Mel-6; 4.5 mg/kg, 18 day): 100%
- V (tumor volume) M + m (human melanoma Mel-6; 4.5 mg/kg, 25 day): 266.0 + 198.0
- percent change in tumor volume Vt/Vt−1 (human melanoma Mel-6; 4.5 mg/kg, 25 day): 166.0±93.0%
- V (tumor volume) M + m (human melanoma Mel-6; 4.5 mg/kg, 33 day): 852.0 + 495.0
- percent change in tumor volume Vt/Vt−1 (human melanoma Mel-6; 4.5 mg/kg, 33 day): 276.0 ± 104.0%
- V (tumor volume) M + m (human melanoma Mel-6; 4.5 mg/kg, 39 day): 1129.0 + 600.0
- percent change in tumor volume Vt/Vt−1 (human melanoma Mel-6; 4.5 mg/kg, 39 day): 39.8 ± 27.3%
- V (tumor volume) M + m (human melanoma Mel-6; 4.5 mg/kg, 46 day): 1354.0 + 735.0
- percent change in tumor volume Vt/Vt−1 (human melanoma Mel-6; 4.5 mg/kg, 46 day): 19.6 ± 17.5%
- V (tumor volume) M + m (human melanoma Mel-6; 4.5 mg/kg, 53 day): 1550.0 + 780.0
- percent change in tumor volume Vt/Vt−1 (human melanoma Mel-6; 4.5 mg/kg, 53 day): 4.2 + 22.5%
- delay in maximum tumor mass gain in comparison with the control (human melanoma Mel-6; in vivo): 7 days
- Initial rate of cell proliferation (% cells/colony relative to the control) (human M-5 melanoma cells; D 0.01 μM, 48 hours): 82.4% and 84.2%
- Initial rate of cell proliferation (human M-5 melanoma cells; D 0.01 μM, 72 hours): 73.6%
- Initial rate of cell proliferation (human M-5 melanoma cells; D 0.01 μM, 96 hours): 70.2%
- Initial rate of cell proliferation (human M-5 melanoma cells; D 1.0 μM, 48 hours): 69.0%
- Initial rate of cell proliferation (human M-5 melanoma cells; D 1.0 μM, 72 hours): 50.0%
- Initial rate of cell proliferation (human M-5 melanoma cells; D 1.0 μM, 96 hours): 49.1%
- Initial rate of cell proliferation (human M-5 melanoma cells; IN 7.0 IU/ml + D 0.01 μM, 48 hours): 79.1%
- Initial rate of cell proliferation (human M-5 melanoma cells; IN 7.0 IU/ml + D 0.01 μM, 72 hours): 49.1%
- Initial rate of cell proliferation (human M-5 melanoma cells; IN 7.0 IU/ml + D 0.01 μM, 96 hours): 46.9%
- Initial rate of cell proliferation (human M-5 melanoma cells; IN 7.0 IU/ml + D 1.0 μM, 48 hours): 54.7%
- Initial rate of cell proliferation (human M-5 melanoma cells; IN 7.0 IU/ml + D 1.0 μM, 72 hours): 36.9%
- Initial rate of cell proliferation (human M-5 melanoma cells; IN 7.0 IU/ml + D 1.0 μM, 96 hours): 33.3%
- Initial rate of cell proliferation (human M-5 melanoma cells; IN 70.0 IU/ml + D 0.01 μM, 48 hours): 40.5%
- Initial rate of cell proliferation (human M-5 melanoma cells; IN 70.0 IU/ml + D 0.01 μM, 72 hours): 34.9%
- Initial rate of cell proliferation (human M-5 melanoma cells; IN 70.0 IU/ml + D 0.01 μM, 96 hours): 31.0% and 31.7%
- Initial rate of cell proliferation (human M-5 melanoma cells; IN 70.0 IU/ml + D 1.0 μM, 48 hours): 30.7%
- Initial rate of cell proliferation (human M-5 melanoma cells; IN 70.0 IU/ml + D 1.0 μM, 72 hours): 24.0% and 24.5%
- Initial rate of cell proliferation (human M-5 melanoma cells; IN 70.0 IU/ml + D 1.0 μM, 96 hours): 23.9%
- toxicity according to the survival index (human M-5 melanoma cells; M-5 cells): does not show toxicity
- Leukocytes ([1]; chemotherapy + Dicarbamine 100 mg daily, individual patients, course 1, Day 0, before starting Dicarbamine): 5.9 10^9/l and 7.4 10^9/l and 6.6 10^9/l
- timing of the third course of CT ([1]; chemotherapy with Dicarbamine, individual patients): in time; also recorded: at term
- Neutrophils [1, 2]: 4.2 10^9/l and 5.7 10^9/l and 5.0 10^9/l
- Platelets [1, 2]: 170 and 174
- Leukocytes [1, 3]: 5.5 10^9/l and 7.2 10^9/l and 5.9 10^9/l
- Neutrophils [1, 3]: 4.0 10^9/l and 5.0 10^9/l and 4.2 10^9/l
- Platelets [1, 3]: 164 and 165 and 172
- Leukocytes [1, 4]: 4.7 10^9/l and 6.6 10^9/l and 5.5 10^9/l
- Neutrophils [1, 4]: 3.3 10^9/l and 5.2 10^9/l and 4.4 10^9/l
- Platelets [1, 4]: 160 and 162 and 166
- Leukocytes [1, 5]: 4.0 10^9/l and 5.2 10^9/l and 5.0 10^9/l
- Neutrophils [1, 5]: 2.9 10^9/l and 3.8 10^9/l and 3.4 10^9/l
- Platelets [1, 5]: 158 and 167 and 164
- Neutrophils [1, 6]: 3.2 10^9/l and 5.2 10^9/l and 3.0 10^9/l
- Leukocytes ([1]; with Dicarbamine, course 2, Day 28 after course 1 of CT, before starting Dicarbamine): 4.9 10^9/l and 7.8 10^9/l and 5.6 10^9/l
- Platelets [1, 6]: 180 and 165 and 170
- Neutrophils [1, 7]: 3.3 10^9/l and 6.0 10^9/l and 3.2 10^9/l
- Leukocytes ([1]; with Dicarbamine, course 2, Day 33, before starting course of CT): 5.0 10^9/l and 8.2 10^9/l and 5.8 10^9/l
- Platelets [1, 7]: 170 and 160
- Neutrophils [1, 8]: 3.1 10^9/l and 6.2 10^9/l and 3.4 10^9/l
- Leukocytes ([1]; with Dicarbamine, course 2, Day 54, after termination of Dicarbamine intake): 4.2 10^9/l and 7.6 10^9/l and 5.7 10^9/l
- Platelets [1, 8]: 160 and 162 and 176
- Neutrophils [1, 9]: 3.0 10^9/l and 5.8 10^9/l and 3.2 10^9/l
- Leukocytes ([1]; with Dicarbamine, course 2, Day 61, before course 3 of CT): 4.2 10^9/l and 7.2 10^9/l and 5.5 10^9/l
- Platelets [1, 9]: 160 and 157 and 165
- Terms of death (100 + 15 mg/kg): no
- Total leukocyte number (100 + 15 mg/kg, day 0): 11.50 ± 2.80 thousand in mm^3
- Total leukocyte number (100 + 15 mg/kg, day 3): 4.04 ± 0.44 thousand in mm^3
- Total leukocyte number (100 + 15 mg/kg, day 5): 10.40 ± 1.59 thousand in mm^3
- Total leukocyte number (100 + 15 mg/kg, day 7): 14.80 ± 1.76 thousand in mm^3
- Total leukocyte number (100 + 15 mg/kg, day 21): 11.80 ± 1.34 thousand in mm^3
- Terms of death (200 + 30 mg/kg): 10
- Total leukocyte number (200 + 30 mg/kg, day 3): 3.10 ± 0.70 thousand in mm^3
- Total leukocyte number (200 + 30 mg/kg, day 5): 12.80 ± 1.37 thousand in mm^3
- Total leukocyte number (200 + 30 mg/kg, day 7): 15.30 ± 1.26 thousand in mm^3
- Total leukocyte number (200 + 30 mg/kg, day 21): 12.30 ± 0.89 thousand in mm^3
- Total leukocyte number (cytostatic doses 200 + 30 mg/kg (Dicarbamine group: 0.5 mg/kg daily 20 days), day 0): 11.50 ± 2.80 thousand in mm^3
